Test results as given in PMC4007162 (Journal of molecular endocrinology, 2011).

Molecular target: T1, ERα (Homo sapiens, UniProt P03372)
T1 sequence (P03372 1-595): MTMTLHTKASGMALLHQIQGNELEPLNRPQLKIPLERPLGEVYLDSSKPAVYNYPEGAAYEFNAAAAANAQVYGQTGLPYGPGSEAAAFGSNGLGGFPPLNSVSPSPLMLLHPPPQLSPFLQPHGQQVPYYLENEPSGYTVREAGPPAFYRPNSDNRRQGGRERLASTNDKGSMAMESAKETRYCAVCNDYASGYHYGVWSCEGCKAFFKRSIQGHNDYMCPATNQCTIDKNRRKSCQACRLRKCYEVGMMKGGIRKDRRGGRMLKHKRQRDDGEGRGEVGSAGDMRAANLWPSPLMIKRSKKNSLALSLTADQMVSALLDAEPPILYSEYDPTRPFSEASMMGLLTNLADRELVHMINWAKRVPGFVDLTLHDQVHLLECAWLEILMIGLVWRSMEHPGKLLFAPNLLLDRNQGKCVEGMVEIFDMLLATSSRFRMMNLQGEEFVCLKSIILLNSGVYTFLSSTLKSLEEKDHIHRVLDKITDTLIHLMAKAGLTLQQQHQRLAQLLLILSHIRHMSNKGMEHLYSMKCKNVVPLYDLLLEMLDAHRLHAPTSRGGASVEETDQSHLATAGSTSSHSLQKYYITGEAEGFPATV
Test: fluorescence polarization competition with ES2 tracer, recombinant ER
Format: binding

How did the IC50 turn out when `Oc1ccc(Nc2nc(-c3ccc(Cl)cc3)cs2)cc1` [SKI-II, 4-[4-(4-chloro-phenyl)-thiazol-2-ylamino]-phenol] was run?
The IC50 was 85.8 nM.
